Here are results for 4 compounds from PubChem BioAssay AID250 (DTP/NCI, 2004).

“And” between values parts separate entries of the source, which are not always exact repeats. Equal entries are not always repeated. Inconclusive results and toxic doses are left out.

In the assay the test system is BDF1 mice, L1210 leukemia sc, survival T/C. As to the kind of experiment: NCI In Vivo Anticancer Drug Screen. Data for tumor model L1210 Leukemia (subcutaneous) in B6D2F1 (BDF1) mice. The settings on record: endpoint: median survival time, higher = longer survival. A digest of the protocol:
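Read-out: T/C ratio, i.e. survival or tumor size in treated mice over that in vehicle-treated controls, from mice bearing transplantable tumors.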

Where [1] appears, read: dose: 3.0 mg/kg/injection, schedule: Q01DX Z (sc), vehicle: saline.
Setting [2] is: dose: 5.0 mg/kg/injection, schedule: Q01DX Z (sc), vehicle: saline.
[3] abbreviates: dose: 14.0 mg/kg/injection, schedule: Q01DX Z (sc), vehicle: saline.
Where [4] appears, read: dose: 23.0 mg/kg/injection, schedule: Q01DX Z (sc), vehicle: saline.

For the compound `S=P(N1CC1)(N1CC1)N1CC1`, the T/C runs as follows: (dose: 1.08 mg/kg/injection, schedule: Q01DX Z (sc), vehicle: saline) 110 % of control; (dose: 1.5 mg/kg/injection, schedule: Q01DX009 (ip), vehicle: water) 113 % of control; (dose: 1.5 mg/kg/injection, schedule: Q01DX009 (sc), vehicle: water) 105 % of control; (dose: 1.8 mg/kg/injection, schedule: Q01DX Z (sc), vehicle: saline) 100 % of control and 110 % of control; under setting [1], 112 % of control; under setting [2], 156 % of control. Also, the T/C by setting is: (dose: 6.0 mg/kg/injection, schedule: Q01DX009 (ip), vehicle: water) 94 % of control; (dose: 6.0 mg/kg/injection, schedule: Q01DX009 (sc), vehicle: water) 169 % of control; (dose: 8.4 mg/kg/injection, schedule: Q01DX Z (sc), vehicle: saline) 170 % of control; (dose: 12.0 mg/kg/injection, schedule: Q01DX009 (sc), vehicle: water) 86 % of control; under setting [3], 120 % of control; under setting [4], 104 % of control and 120 % of control.
With `NC(Cc1ccc(N(CCCl)CCCl)cc1)C(=O)O` (stereo unspecified), the T/C runs as follows: (dose: 1.09 mg/kg/injection, schedule: Q01DX Z (sc), vehicle: water) 100 % of control; (dose: 1.81 mg/kg/injection, schedule: Q01DX Z (sc), vehicle: water) 100 % of control; under setting [1], 100 % of control; (dose: 3.02 mg/kg/injection, schedule: Q01DX Z (sc), vehicle: water) 95 % of control; under setting [2], 111 % of control; (dose: 5.04 mg/kg/injection, schedule: Q01DX Z (sc), vehicle: water) 100 % of control. The T/C by setting is: (dose: 8.4 mg/kg/injection, schedule: Q01DX Z (sc), vehicle: water) 100 % of control; under setting [3], 155 % of control; under setting [4], 122 % of control; (dose: 39.0 mg/kg/injection, schedule: Q01DX Z (sc), vehicle: saline) 122 % of control; (dose: 65.0 mg/kg/injection, schedule: Q01DX Z (sc), vehicle: saline) 122 % of control; (dose: 108.0 mg/kg/injection, schedule: Q01DX Z (sc), vehicle: saline) 111 % of control.
Consider `CS(C)=O`, for which the T/C (dose: 1.5 grams/kg/injection, schedule: Q01DX009 (ip), vehicle: saline) was 103 % of control; the T/C (dose: 3.0 grams/kg/injection, schedule: Q01DX009 (ip), vehicle: saline) is 97 % of control; the T/C (dose: 6.0 grams/kg/injection, schedule: Q01DX009 (ip), vehicle: saline) was 103 % of control.
On to `CS(=O)(=O)OCC(O)C(O)C(O)C(O)COS(C)(=O)=O` (stereo unspecified), for which the T/C (dose: 8.4 mg/kg/injection, schedule: Q01DX Z (sc), vehicle: methylcellulose (MC)) is 103 % of control; the T/C (dose: 14.0 mg/kg/injection, schedule: Q01DX Z (sc), vehicle: methylcellulose (MC)) was 100 % of control; the T/C (dose: 23.0 mg/kg/injection, schedule: Q01DX Z (sc), vehicle: methylcellulose (MC)) was 96 % of control; the T/C (dose: 39.0 mg/kg/injection, schedule: Q01DX Z (sc), vehicle: methylcellulose (MC)) was 100 % of control; the T/C (dose: 65.0 mg/kg/injection, schedule: Q01DX Z (sc), vehicle: methylcellulose (MC)) is 100 % of control; the T/C (dose: 108.0 mg/kg/injection, schedule: Q01DX Z (sc), vehicle: methylcellulose (MC)) is 100 % of control. Also, the T/C reads like this: (dose: 180.0 mg/kg/injection, schedule: Q01DX Z (sc), vehicle: methylcellulose (MC)) 103 % of control; (dose: 300.0 mg/kg/injection, schedule: Q01DX Z (sc), vehicle: methylcellulose (MC)) 107 % of control; (dose: 500.0 mg/kg/injection, schedule: Q01DX Z (sc), vehicle: methylcellulose (MC)) 103 % of control.
